# Values joined by “and” are separate entries in the source; they are usually repeats but may differ in a detail not shown here. Identical values can stand only once. Like-named read-outs stand apart in the source and are kept apart here.
# Key:
# PfcProRS = molecular target: T1, PfcProRS (Plasmodium falciparum, UniProt Q8I5R7); assay type: binding; conditions: single replicates
# T1 construct: made in house; host or cells: E. coli SoluBL-21
# HsProRS = HsProRS (Homo sapiens, UniProt P07814); assay: TR-FRET ligand displacement assay with tracer MAT379 (CoraFluor-1-Halo and anti-His6 antibody formats); assay type: binding; set-up: made in house; host or cells: E. coli SoluBL-21; conditions: for TR-FRET dose-response, normalized signal (SI Fig 11): individual replicates
# HsProRS, sequence (P07814 996-1512): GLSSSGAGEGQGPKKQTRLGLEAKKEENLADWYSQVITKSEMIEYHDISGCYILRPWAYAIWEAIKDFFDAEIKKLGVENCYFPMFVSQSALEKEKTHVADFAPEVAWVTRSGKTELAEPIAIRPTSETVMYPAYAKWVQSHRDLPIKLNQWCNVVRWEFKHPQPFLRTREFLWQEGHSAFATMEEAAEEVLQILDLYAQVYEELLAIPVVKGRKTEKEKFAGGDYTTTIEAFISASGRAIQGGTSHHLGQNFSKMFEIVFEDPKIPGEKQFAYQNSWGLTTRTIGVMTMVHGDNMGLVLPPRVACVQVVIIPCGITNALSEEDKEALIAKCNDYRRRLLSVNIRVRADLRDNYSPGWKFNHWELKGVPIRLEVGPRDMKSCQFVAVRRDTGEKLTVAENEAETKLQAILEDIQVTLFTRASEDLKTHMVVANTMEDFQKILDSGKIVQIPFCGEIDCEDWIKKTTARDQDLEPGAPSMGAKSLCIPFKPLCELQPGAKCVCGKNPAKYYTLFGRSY
# T1 sequence (Q8I5R7 249-746): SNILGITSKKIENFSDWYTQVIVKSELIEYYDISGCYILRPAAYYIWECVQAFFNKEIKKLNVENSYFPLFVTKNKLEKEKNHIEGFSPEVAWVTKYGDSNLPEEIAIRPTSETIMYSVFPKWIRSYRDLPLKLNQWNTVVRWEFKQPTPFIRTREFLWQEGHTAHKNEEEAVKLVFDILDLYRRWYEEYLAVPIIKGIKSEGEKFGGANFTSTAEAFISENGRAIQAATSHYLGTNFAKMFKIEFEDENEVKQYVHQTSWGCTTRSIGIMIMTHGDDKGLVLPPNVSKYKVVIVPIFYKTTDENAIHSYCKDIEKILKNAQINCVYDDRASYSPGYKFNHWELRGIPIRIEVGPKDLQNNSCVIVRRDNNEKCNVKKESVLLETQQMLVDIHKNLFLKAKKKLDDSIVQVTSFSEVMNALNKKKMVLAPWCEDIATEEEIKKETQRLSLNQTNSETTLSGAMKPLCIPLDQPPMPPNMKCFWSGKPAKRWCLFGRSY
structure (smiles),measurement,setting,value
CC(C)(C)OC(=O)N1CCN(C(=O)Nc2nccnc2C(=O)NC2Cc3ccccc3C2)CC1 [compound 13],"dose-response signal (normalized), SI Fig 8",PfcProRS; Log[inhibitor] (M) -5.000,6.57E-01 and 6.36E-01 and 6.64E-01
same,"dose-response signal (normalized), SI Fig 8",PfcProRS; Log[inhibitor] (M) -5.301,8.73E-01 and 7.48E-01 and 7.96E-01
same,"dose-response signal (normalized), SI Fig 8",PfcProRS; Log[inhibitor] (M) -5.601,9.97E-01 and 9.02E-01 and 8.50E-01
same,"dose-response signal (normalized), SI Fig 8",PfcProRS; Log[inhibitor] (M) -5.904,9.78E-01 and 1.07E+00 and 1.00E+00
same,"dose-response signal (normalized), SI Fig 8",PfcProRS; Log[inhibitor] (M) -6.208,1.06E+00 (2×) and 9.45E-01
same,"dose-response signal (normalized), SI Fig 8",PfcProRS; Log[inhibitor] (M) -6.509,1.17E+00 and 1.01E+00 and 1.09E+00
same,"dose-response signal (normalized), SI Fig 8",PfcProRS; Log[inhibitor] (M) -6.796,1.13E+00 and 1.01E+00 and 1.17E+00
same,"dose-response signal (normalized), SI Fig 8",PfcProRS; Log[inhibitor] (M) -7.108,1.04E+00 and 9.91E-01 and 1.15E+00
same,"dose-response signal (normalized), SI Fig 8",PfcProRS; Log[inhibitor] (M) -7.409,1.05E+00 and 1.06E+00 and 1.03E+00
same,"dose-response signal (normalized), SI Fig 8",PfcProRS; Log[inhibitor] (M) -7.710,1.04E+00 and 9.80E-01 and 9.98E-01
same,"dose-response signal (normalized), SI Fig 8",PfcProRS; Log[inhibitor] (M) -8.000,1.08E+00 and 9.50E-01 and 1.05E+00
same,"dose-response signal (normalized), SI Fig 8",PfcProRS; Log[inhibitor] (M) -8.301,1.02E+00 and 1.08E+00 and 1.09E+00
same,"dose-response signal (normalized), SI Fig 8",PfcProRS; Log[inhibitor] (M) -8.602,9.84E-01 and 9.74E-01 and 9.67E-01
same,"dose-response signal (normalized), SI Fig 8",PfcProRS; Log[inhibitor] (M) -9.000,1.06E+00 and 9.60E-01 and 9.76E-01
same,"dose-response signal (normalized), SI Fig 8",PfcProRS; Log[inhibitor] (M) -9.301,1.07E+00 and 9.33E-01 and 9.62E-01
same,IC50,HsProRS,> 10 µM
same,"HsProRS % signal at 10 μM, + 100 μM proline","HsProRS; + 100 μM proline, 10 μM",52.2%
same,"normalized TR-FRET ligand displacement signal, dose-response replicates (SI Fig 6)",HsProRS; Log[inhibitor] (M) -5.000,5.04E-01 and 5.72E-01 and 5.31E-01
same,"TR-FRET dose-response, normalized signal (SI Fig 11)",HsProRS; Log[inhibitor] (M) -5.000,5.54E-01 and 6.12E-01 and 6.15E-01
same,"normalized TR-FRET ligand displacement signal, dose-response replicates (SI Fig 6)",HsProRS; Log[inhibitor] (M) -5.301,6.63E-01 and 7.73E-01 and 7.12E-01
same,"TR-FRET dose-response, normalized signal (SI Fig 11)",HsProRS; Log[inhibitor] (M) -5.301,7.87E-01 and 7.25E-01 and 6.74E-01
same,"normalized TR-FRET ligand displacement signal, dose-response replicates (SI Fig 6)",HsProRS; Log[inhibitor] (M) -5.601,9.43E-01 and 7.95E-01 and 9.57E-01
same,"TR-FRET dose-response, normalized signal (SI Fig 11)",HsProRS; Log[inhibitor] (M) -5.601,8.12E-01 and 8.26E-01 and 8.38E-01
same,"normalized TR-FRET ligand displacement signal, dose-response replicates (SI Fig 6)",HsProRS; Log[inhibitor] (M) -5.904,9.95E-01 and 9.88E-01 and 9.03E-01
same,"TR-FRET dose-response, normalized signal (SI Fig 11)",HsProRS; Log[inhibitor] (M) -5.904,8.50E-01 and 8.61E-01 and 8.43E-01
same,"normalized TR-FRET ligand displacement signal, dose-response replicates (SI Fig 6)",HsProRS; Log[inhibitor] (M) -6.208,1.02E+00 and 9.02E-01 and 9.17E-01
same,"TR-FRET dose-response, normalized signal (SI Fig 11)",HsProRS; Log[inhibitor] (M) -6.208,9.15E-01 and 9.28E-01 and 8.71E-01
same,"normalized TR-FRET ligand displacement signal, dose-response replicates (SI Fig 6)",HsProRS; Log[inhibitor] (M) -6.509,9.58E-01 and 9.37E-01 and 9.28E-01
same,"TR-FRET dose-response, normalized signal (SI Fig 11)",HsProRS; Log[inhibitor] (M) -6.509,9.05E-01 and 9.50E-01 and 9.14E-01
same,"normalized TR-FRET ligand displacement signal, dose-response replicates (SI Fig 6)",HsProRS; Log[inhibitor] (M) -6.796,1.05E+00 (2×) and 9.53E-01
same,"TR-FRET dose-response, normalized signal (SI Fig 11)",HsProRS; Log[inhibitor] (M) -6.796,9.07E-01 and 9.30E-01 and 8.71E-01
same,"normalized TR-FRET ligand displacement signal, dose-response replicates (SI Fig 6)",HsProRS; Log[inhibitor] (M) -7.108,1.05E+00 and 1.10E+00 and 9.73E-01
same,"TR-FRET dose-response, normalized signal (SI Fig 11)",HsProRS; Log[inhibitor] (M) -7.108,9.13E-01 and 9.30E-01 and 9.12E-01
same,"normalized TR-FRET ligand displacement signal, dose-response replicates (SI Fig 6)",HsProRS; Log[inhibitor] (M) -7.409,1.03E+00 and 1.01E+00 (2×)
same,"TR-FRET dose-response, normalized signal (SI Fig 11)",HsProRS; Log[inhibitor] (M) -7.409,9.32E-01 and 9.37E-01 and 8.25E-01
same,"normalized TR-FRET ligand displacement signal, dose-response replicates (SI Fig 6)",HsProRS; Log[inhibitor] (M) -7.710,9.23E-01 (2×) and 9.87E-01
same,"TR-FRET dose-response, normalized signal (SI Fig 11)",HsProRS; Log[inhibitor] (M) -7.710,9.18E-01 and 8.75E-01 and 8.91E-01
same,"normalized TR-FRET ligand displacement signal, dose-response replicates (SI Fig 6)",HsProRS; Log[inhibitor] (M) -8.000,9.04E-01 and 9.35E-01 and 9.98E-01
same,"TR-FRET dose-response, normalized signal (SI Fig 11)",HsProRS; Log[inhibitor] (M) -8.000,9.32E-01 and 9.16E-01 and 8.80E-01
same,"normalized TR-FRET ligand displacement signal, dose-response replicates (SI Fig 6)",HsProRS; Log[inhibitor] (M) -8.301,9.80E-01 and 9.08E-01 and 1.02E+00
same,"TR-FRET dose-response, normalized signal (SI Fig 11)",HsProRS; Log[inhibitor] (M) -8.301,8.80E-01 and 9.57E-01 and 9.53E-01
same,"normalized TR-FRET ligand displacement signal, dose-response replicates (SI Fig 6)",HsProRS; Log[inhibitor] (M) -8.602,9.80E-01 and 9.47E-01 and 9.05E-01
same,"TR-FRET dose-response, normalized signal (SI Fig 11)",HsProRS; Log[inhibitor] (M) -8.602,9.10E-01 and 9.58E-01 and 9.24E-01
same,"normalized TR-FRET ligand displacement signal, dose-response replicates (SI Fig 6)",HsProRS; Log[inhibitor] (M) -9.000,9.78E-01 and 9.57E-01 and 9.87E-01
same,"TR-FRET dose-response, normalized signal (SI Fig 11)",HsProRS; Log[inhibitor] (M) -9.000,9.07E-01 and 8.93E-01 and 8.97E-01
same,"normalized TR-FRET ligand displacement signal, dose-response replicates (SI Fig 6)",HsProRS; Log[inhibitor] (M) -9.301,9.45E-01 and 8.63E-01 and 9.67E-01
same,"TR-FRET dose-response, normalized signal (SI Fig 11)",HsProRS; Log[inhibitor] (M) -9.301,9.11E-01 and 8.69E-01 and 9.61E-01
same,HsProRS % signal at 10 μM,"HsProRS; no added proline/ATP (-), 10 μM",59.4%
same,IC50,"HsProRS; read-out: HsProRS IC50 + 100 μM proline, + 100 μM proline",> 10 µM

# Reference: PMC9403976, “Elucidating the path to Plasmodium prolyl-tRNA synthetase inhibitors that overcome halofuginone resistance” (Nature Communications, 2022)
